According to US20230165872A1, “COMBINATION OF BCMA-DIRECTED T CELL THERAPY AND AN IMMUNOMODULATORY COMPOUND” (Juno Therapeutics, Inc., priority 2020, published 2023):

How the values were obtained:
OPM2 target cells = assay: Acute co-culture cytokine secretion of anti-BCMA CAR T cells with OPM2; type: cell-based, human; conditions: OPM2, E:T 1:1, 24 hours, 0.01-10,000 nM, FIG. 2B
Protocol: Anti-tumor effects of anti-BCMA CAR T cells, alone and in combination with cell immunomodulatory compounds Compound A (iberdomide, (S)-3-[4-(4-morpholin-4-ylmethyl-benzyloxy)-1-oxo-1,3-dihydro-isoindol-2-yl]-piperidine-2,6-dione) or Compound B ((S)-4-(4-(4-(((2-(2,6-dioxopiperidin-3-yl)-1-oxoisoindolin-4-yl)oxy)methyl)benzyl)piperazin-1-yl)-3-fluorobenzonitrile), were assessed in two different BCMA-expressing target multiple myeloma cell lines RPMI-8226 or OPM-2. Anti-BCMA CAR+ T cells were generated as described in Example 1.
The anti-BCMA CAR-expressing T cells were incubated with target cells, RPMI 8226 (BCMA^med human multiple myeloma cell line) or OPM2 cells (BCMA^med human multiple myeloma cell line) target cells, at an E:T ratio of 1:1. The co-culture incubation with target cells was carried out in the presence of Compound A (0.01 nM, 0.1 nM, 1 nM, 10 nM, 100 nM, 1000 nM, or 10,000 nM) or Compound B (0.01 nM, 0.1 nM, 1 nM, 10 nM, 100 nM, 1000 nM, or 10,000 nM).
Cytokine secretion of IL-2, TNFα and IFN-gamma cytokines from cell culture supernatant of the co-cultures after 24 hours of incubation with targets cells was determined. Co-culture of anti-BCMA CAR+ T cells with Compound A enhanced the CAR T cytokine production both against RPMI-8226 target cells (FIG. 2A) and OPM2 target cells (FIG. 2B).

Aiolos = assay: Intracellular Aiolos expression in BCMA-bead stimulated anti-BCMA CAR T cells (flow cytometry, MFI); type: cell-based, human; conditions: CD4+CAR+ or CD8+CAR+ cells; 24 or 72 hours; lenalidomide 1000 nM, Compound A 1, 10, 100 nM, Compound B 0.1, 1, 10 nM
Protocol: (§1) A BCMA-Fc fusion protein containing the extracellular domain of human BCMA and a human IgG1Fc was conjugated to beads by covalently coupling to the surface of commercially available tosyl-activated magnetic beads having a diameter of approximately […] (M-450 beads, ThermoFisher, Waltham Mass.) (see e.g. International published PCT App. No. WO2019/027850). Following incubation, anti-BCMA CAR-expressing T cells were stained with antibodies and analyzed by flow cytometry to assess intracellular levels of Ikaros and Aiolos in CD4+CAR+ or CD8+CAR+ cells, as measured by median fluorescence intensity (MFI). Median fluorescence intensity (MFI) values for Ikaros and Aiolos were normalized and calculated as a percentage relative to vehicle control.

CRBN = CRBN (Homo sapiens, UniProt Q96SW2); conditions: compared with lenalidomide and pomalidomide; cited from earlier work
CRBN, sequence (Q96SW2 whole entry, species assumed): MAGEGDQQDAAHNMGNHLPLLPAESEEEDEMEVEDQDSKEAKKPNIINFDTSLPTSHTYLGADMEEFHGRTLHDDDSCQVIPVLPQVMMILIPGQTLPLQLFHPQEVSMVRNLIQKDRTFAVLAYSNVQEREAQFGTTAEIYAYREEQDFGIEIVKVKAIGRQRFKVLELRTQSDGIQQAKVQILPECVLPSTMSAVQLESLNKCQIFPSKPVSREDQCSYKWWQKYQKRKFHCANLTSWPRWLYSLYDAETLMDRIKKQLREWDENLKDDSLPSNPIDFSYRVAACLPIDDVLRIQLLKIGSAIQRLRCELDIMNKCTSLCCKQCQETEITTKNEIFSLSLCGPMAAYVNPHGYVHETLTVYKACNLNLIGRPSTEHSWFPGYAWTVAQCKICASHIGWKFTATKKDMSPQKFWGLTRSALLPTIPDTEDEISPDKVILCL

RPMI-8226 target cells = assay: Rechallenge with RPMI-8226 after concurrent compound treatment during chronic stimulation (cytolysis, cytokines); type: cell-based, human
Protocol: Cryofrozen anti-BCMA CAR T cells, produced substantially as described in Example 1 and formulated at a 1:1 ratio of CD4+ and CD8^+ T cells, were thawed. To subject cells to chronic stimulation conditions, the anti-BCMA CAR+ T cells were stimulated with 50 μg BCMA conjugated beads (diameter about 4.5 μm from a 50 μg/ml BCMA-conjugated bead composition, generated as described in Example 2) at a ratio of T cells to beads of 1:1 in the presence or absence of Compound A (iberdomide, (S)-3-[4-(4-morpholin-4-ylmethyl-benzyloxy)-1-oxo-1,3-dihydro-isoindol-2-yl]-piperidine-2,6-dione) (1 nM or 10 nM), Compound B ((S)-4-(4-(4-(((2-(2,6-dioxopiperidin-3-yl)-1-oxoisoindolin-4-yl)oxy)methyl)benzyl)piperazin-1-yl)-3-fluorobenzonitrile) (0.1 nM or 1 nM), or DMSO vehicle control. The cells were then incubated at 37° C., 5% CO2 for 7 days.
CAR T cells that had been stimulated for 7 days with cultured with 50 μg BCMA-coated magnetic beads concurrently in the presence of the cell immunomodulatory compound were washed free of compound and cells were debeaded. The anti-BCMA CAR T cells that had been stimulated for 7 days with BCMA-conjugated beads in the presence of the compounds were co-cultured with RPMI-8226 target cells (labeled with NucLightRed as described in Example 2) at a 1:1 (effector:target) ratio. Killing activity was monitored over 200 hours by measuring NucLightRed (NLR)-positive target cells. The total cell number of NLR-expressing RPMI targets cells was determined by normalizing cell number over time to the number of cells at the initiation of the co-culture (t=0) for each respective condition.
For cytokine measurements, cell-free supernatants were collected from the cytolytic assay described above 24 hours after plating. Cytokine levels of IFNg, IL-2, and TNFalpha (TNFα) was measured in the supernatant.
Cryofrozen anti-BCMA CAR T cells, produced substantially as described in Example 1 and formulated at a 1:1 ratio of CD4+ and CD8+ T cells, were thawed. […] The cells were then incubated at 37° C., 5% CO2 for 7 days.
Cytolytic activity was assessed using OPM-2 and RPMI-8226 BCMA expressing target cells transduced with NucLight Red, a red fluorescent protein detectable by microscopy, to allow for measurement of target cell death. Anti-BCMA CAR T cells that had been stimulated for 7 days with BCMA-conjugated beads in the presence of the compounds were co-cultured with RPMI-8226 target cells at a 0.3:1 (effector:target) or 1:1 ratio. Cultures were incubated at 37° C., 5% CO2, and images were taken every 2 hours over 5-7 days with an Essen IncuCyte Zoom live-cell analysis system to track NucLightRed-positive target cells.
For cytokine measurements, cell-free supernatants were collected from the cytolytic assay described above 24 hours after plating. Cytokine levels were measured using IFNg, IL-2, and TNFalpha Meso Scale Discovery cytokine kit (Mesoscale) according to manufacturer instructions. The data was analyzed using GraphPad Prism to calculate absolute changes in cytokine relative to the DMSO vehicle control.

lymphoma cells = conditions: cited from earlier work
Ikaros = assay: Intracellular Ikaros expression in BCMA-bead stimulated anti-BCMA CAR T cells (flow cytometry, MFI); type: cell-based, human
Protocol: as §1

O=C1CC[C@H](N2Cc3c(OCc4ccc(CN5CCOCC5)cc4)cccc3C2=O)C(=O)N1 [Compound A, (S)-3-[4-(4-morpholin-4-ylmethyl-benzyloxy)-1-oxo-1,3-dihydro-isoindol-2-yl]-piperidine-2,6-dione]
CAR T cytokine production (IL-2, TNFα, IFN-gamma in supernatant) (OPM2 target cells): enhanced
intracellular Aiolos expression (MFI, percentage relative to vehicle control) (Aiolos): concentration dependent decrease
binding to CRBN (CRBN): binds more potently
cytolytic activity after long-term stimulation in the presence of compound (RPMI-8226 target cells; Example 7: E:T 0.3:1, lenalidomide 1000 nM, Compound A 1 or 10 nM, FIG. 9A): increased cytolytic activity
production of IFN-gamma (RPMI-8226 target cells; Example 7: supernatant at 24 hours, relative to DMSO, FIG. 9B): increased production
production of IL-2 (RPMI-8226 target cells; Example 7: supernatant at 24 hours, relative to DMSO, FIG. 9C): increased production
production of TNF-alpha (RPMI-8226 target cells; Example 7: supernatant at 24 hours, relative to DMSO, FIG. 9D): increased production
direct anti-proliferative effects on lymphoma cells (lymphoma cells): potent direct anti-proliferative effects
intracellular Ikaros expression (MFI, percentage relative to vehicle control) (Ikaros; CD4+CAR+ or CD8+CAR+ cells, 24 or 72 hours, lenalidomide 1000 nM, Compound A 1, 10, 100 nM, Compound B 0.1, 1, 10 nM): concentration dependent decrease
potency in decreasing Ikaros and Aiolos expression, compared with lenalidomide (Ikaros; stimulated anti-BCMA CAR T cells): more potent than lenalidomide
